Source: patent US5043322A, “Cyclic GRF analogs” (The Salk Institute for Biological Studies, priority 1988, dated 1991)
Where a SMILES comes first, the peptide text is derived from it. Bridges are numbered along the chain shown (N, C = ends). [ ]: non-standard residue; d: D form. NMeY = CN[C@@H](Cc1ccc(O)cc1)C(=O)O; Nle = CCCC[C@H](N)C(=O)O

Legend:
[1] = tested on: urethane-anesthetized male rats; assay: in vivo GH secretion after intravenous injection, blood GH by radioimmunoassay; parameters: species or system rat; settings: compared with 25 μg hGRF(1-40)--OH
Experimental: In addition to the in vitro tests for secretion of growth hormone, in vivo experiments inject the synthetic peptides intravenously into urethane-anesthetized male rats and determine that they trigger GH secretion. Blood samples are taken immediately prior to, and 10, 45 and 90 minutes after injections, and GH levels in blood are measured by radioimmunoassay. […] Dosages between about 400 nanograms and about 50 micrograms of these cyclic peptides per Kg. of body weight are considered to be effective in causing GH secretion.

[2] = tested on: cells of rat pituitary glands; assay: in vitro GH release from cultured rat pituitary cells, side-by-side with standard hGRF(1-40)--OH; format: cell-based; settings: equimolar concentrations, incubation 3 to 4 hours, ir GH in culture medium by radioimmunoassay
Experimental: All of these synthetic peptides are considered to be biologically active and potentially useful for stimulating the release of GH by the pituitary.
To determine the relative effectiveness of certain representative synthetic peptides to promote the release of growth hormone, in vitro assays are carried out using synthetic hGRF(1-40)--OH as a standard in side-by-side comparison with equimolar concentrations of the representative analogs which have been synthesized. Cultures are used which include cells of rat pituitary glands removed some three to five days previously. Such cultures are considered optimal for the secretion of growth hormone and are used for the comparative testing, in the general manner described in Vale et al. Endocrinology, 91, 562-572 (1972) and as more particularly described in Vale et al. Endocrinology, 112, 553-1555 (1983). Incubation with the substance to be tested is carried out for 3 to 4 hours, and aliquots of the culture medium are removed and processed to measure their contents in immunoreactive GH(ir GH) by a well-characterized radioimmunoassay.

Row | SMILES | in vivo response (blood GH) at 10 minutes ([1]; dosage of 1 μg) | biological potency for the secretion of GH relative to hGRF(1-40)--OH [2] | in vivo response (blood GH) at 10 minutes ([1]; dosage of 5 μg)
1 | CCCC[C@@H]1NC(=O)[C@H]([C@@H](C)CC)NC(=O)[C@H](NC(=O)[C@H](Cc2c[nH]cn2)NC(=O)[C@H](CC(C)C)NC(=O)[C@H](CC(C)C)NC(=O)[C@H](CCCCN)NC(=O)[C@H](CCCNC(=N)N)NC(=O)[C@H](C)NC(=O)[C@H](Cc2ccc(O)cc2)NC(=O)[C@H](CC(C)C)NC(=O)[C@H](CCC(N)=O)NC(=O)[C@H](C)NC(=O)[C@H](CC(C)C)NC(=O)[C@@H](NC(=O)[C@H](CCCNC(=N)N)NC(=O)[C@H](CCCNC(=N)N)NC(=O)[C@H](Cc2ccc(O)cc2)NC(=O)[C@H](CO)NC(=O)[C@H](CO)NC(=O)[C@@H](NC(=O)[C@H](Cc2ccccc2)NC(=O)[C@@H](NC(=O)[C@H](C)NC(=O)[C@H](CC(=O)O)NC(=O)[C@H](C)NC(=O)[C@H](Cc2ccc(O)cc2)NC)[C@@H](C)CC)[C@@H](C)O)[C@@H](C)CC)CSSC[C@@H](C(N)=O)NC(=O)[C@H](CC(N)=O)NC1=O [Example I, [N^a MeTyr^1, Ala^15, D-Cys^25, Nle^27,Cys^29]-rGRF(1-29)-NH2] (H-[NMeY]ADAIFTSSYRRILAQLYARKLLH[dC]I[Nle]NC-NH2; disulfide 25-29) | greater than a 25 μg dose of hGRF(1-40)--OH | – | –
2 | CCCC[C@@H]1NC(=O)[C@H]([C@@H](C)CC)NC(=O)[C@@H](NC(=O)[C@H](Cc2c[nH]cn2)NC(=O)[C@H](CC(C)C)NC(=O)[C@H](CC(C)C)NC(=O)[C@H](CCCCN)NC(=O)[C@H](CCCNC(=N)N)NC(=O)[C@H](C)NC(=O)[C@H](Cc2ccc(O)cc2)NC(=O)[C@H](CC(C)C)NC(=O)[C@H](CCC(N)=O)NC(=O)[C@H](C)NC(=O)[C@H](CC(C)C)NC(=O)[C@@H](NC(=O)[C@H](CCCNC(=N)N)NC(=O)[C@H](CCCNC(=N)N)NC(=O)[C@H](Cc2ccc(O)cc2)NC(=O)[C@H](CO)NC(=O)[C@H](CO)NC(=O)[C@@H](NC(=O)[C@H](Cc2ccccc2)NC(=O)[C@@H](NC(=O)[C@H](C)NC(=O)[C@H](CC(=O)O)NC(=O)[C@H](C)NC(=O)[C@H](Cc2ccc(O)cc2)NC)[C@@H](C)CC)[C@@H](C)O)[C@@H](C)CC)CSSC[C@H](C(N)=O)NC(=O)[C@H](CC(N)=O)NC1=O [Example IA, [N^a MeTyr^1,Ala^15,Cys^25,Nle^27,D-Cys^29]-rGRF(1-29)-NH2] (H-[NMeY]ADAIFTSSYRRILAQLYARKLLHCI[Nle]N[dC]-NH2; disulfide 25-29) | – | about twice | greater than a 25 μg dose of hGRF(1-40)--OH
